pIC50: −log10 of the molar value.
Biological target: Endothelin-1 receptor (Homo sapiens) (UniProt P25101)
Assay: Displacement of [125I]ET-1 from Endothelin A receptor

Endothelin-1 receptor (Homo sapiens), sequence (P25101 whole entry, looked up): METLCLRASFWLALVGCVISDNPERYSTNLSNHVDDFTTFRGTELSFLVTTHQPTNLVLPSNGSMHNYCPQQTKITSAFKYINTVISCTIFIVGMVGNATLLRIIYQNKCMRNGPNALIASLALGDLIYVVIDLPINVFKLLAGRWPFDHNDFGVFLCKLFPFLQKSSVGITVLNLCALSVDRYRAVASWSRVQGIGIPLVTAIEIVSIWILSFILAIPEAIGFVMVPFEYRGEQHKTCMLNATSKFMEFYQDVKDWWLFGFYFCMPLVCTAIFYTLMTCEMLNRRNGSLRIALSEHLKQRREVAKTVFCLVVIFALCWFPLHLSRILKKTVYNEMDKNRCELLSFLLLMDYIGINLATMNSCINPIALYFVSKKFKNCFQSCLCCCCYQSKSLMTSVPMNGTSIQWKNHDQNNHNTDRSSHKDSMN

pIC50: 10.70
SMILES: Cc1cc(C)c(NC(=O)c2sccc2S(=O)(=O)Nc2onc(C)c2Cl)c(C(C)N=O)c1 (stereo unspecified) [3-(4-Chloro-3-methyl-isoxazol-5-ylsulfamoyl)-thiophene-2-carboxylic acid [2-(1-hydroxyimino-ethyl)-4,6-dimethyl-phenyl]-amide]

— BindingDB's records for doi:10.1021/jm030528p (Encysive Pharmaceuticals, 2004)
